The values below come from ChEMBL document CHEMBL1201862, “PubChem BioAssay data set” (2004).

Some test systems named below: CCRF-CEM; HCC 2998; HCT-116; HCT-15; HL-60; HOP-62; HT-29; IGROV-1; K562; KM12; NCI-H226; NCI-H522; OVCAR-8; RPMI-8226; SF-539; SK-MEL-28; SNB-19; SNB-75; UACC-257; UO-31.
Assay in all cases: inhibition of tumour cell growth, NCI panel, 48 h

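Dose response: 5 concentrations. Exposure: 48 h. Format: 96-well plates. Endpoint: linear interpolation; highest concentration if not reached. GI50: concentration for 50% inhibition of growth.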 Activity calls are given as the source filed them. Rule as the data show it: active = GI50 up to about 1.1 µM and inactive = higher.

Regarding `Cc1ccc(C2CC(c3cccc([N+](=O)[O-])c3)=Nc3ccccc3S2)cc1` (stereo not given), the GI50 with CCRF-CEM is 23.2 µM (inactive); in the experiment with HCC 2998 it was 82.2 µM (inactive); with HCT-116, 13.3 µM (inactive); with HCT-15, 25.5 µM; with HL-60 it was 20.1 µM (inactive); in the experiment on HOP-62, > 62.8 µM (inactive). The GI50 in the experiment with HT-29 was 32.4 µM (inactive); in the experiment with IGROV-1 it was 63.8 µM (inactive); in the experiment on K562 it was 20.6 µM (inactive); with KM12 it was 18 µM (inactive); in the experiment on NCI-H226, > 44.1 µM (inactive); in the experiment on NCI-H522, 20.5 µM (inactive). The GI50 with OVCAR-8 was 24.2 µM (inactive); in the experiment on RPMI-8226, 7.83 µM (inactive); in the experiment on SF-539, 51.5 µM (inactive); in the experiment on SK-MEL-28, 62.4 µM (inactive); in the experiment with SNB-19 it was > 58.3 µM (inactive); in the experiment with SNB-75, 21 µM (inactive). Also, the GI50 in the experiment on UACC-257 was 34.6 µM (inactive); in the experiment with UO-31, 20.8 µM (inactive).
Take `Cc1ccc(OCC2OC(n3cnc4c(Cl)nc(N)nc43)CC2Oc2ccc(C)cc2)cc1` (stereo not given): the GI50 is > 74.6 µM (inactive) in the experiment on CCRF-CEM; 24.4 µM (inactive) in the experiment on HCC 2998; 47.5 µM (inactive) in the experiment on HCT-116; 31 µM with HCT-15; 13.9 µM (inactive) in the experiment on HL-60; > 36.1 µM (inactive) in the experiment on HOP-62. Besides, the GI50 in the experiment with HT-29 was 46.1 µM (inactive); with IGROV-1 it was 19.4 µM (inactive); with K562, 29.4 µM (inactive); with KM12, > 51.8 µM (inactive); in the experiment on NCI-H226 it was > 43.5 µM (inactive); with NCI-H522, 3.61 µM (inactive). Moreover, the GI50 in the experiment with OVCAR-8 was 31.9 µM (inactive); with RPMI-8226, 33 µM (inactive); in the experiment on SF-539 it was > 55.7 µM (inactive); in the experiment with SK-MEL-28, > 51.4 µM (inactive); with SNB-19, 38 µM (inactive); in the experiment on SNB-75, > 70.8 µM (inactive). The GI50 with UACC-257 is 63.7 µM (inactive); in the experiment on UO-31, 4.58 µM (inactive).
Take `Cc1ccc(/N=N/C(C(=O)c2ccccc2)C(=O)c2ccccc2)cc1`: the GI50 with CCRF-CEM was 10.9 µM (inactive); in the experiment with HCC 2998, 38.3 µM (inactive); in the experiment with HCT-116 it was 14.9 µM (inactive); with HCT-15 it was 14.2 µM; in the experiment with HL-60, 9.08 µM (inactive); with HOP-62 it was 21.1 µM (inactive). The GI50 is 22 µM (inactive) in the experiment on HT-29; 31.2 µM (inactive) in the experiment on IGROV-1; 17.7 µM (inactive) in the experiment with K562; 36.1 µM (inactive) in the experiment on KM12; 17.6 µM (inactive) in the experiment with NCI-H226; 17.3 µM (inactive) in the experiment with NCI-H522. Moreover, the GI50 was 28.6 µM (inactive) with OVCAR-8; 16.9 µM (inactive) in the experiment on RPMI-8226; 22.4 µM (inactive) in the experiment on SF-539; 31.6 µM (inactive) in the experiment on SK-MEL-28; 19 µM (inactive) in the experiment with SNB-19; 20.6 µM (inactive) with SNB-75. In addition, the values for the GI50 in the experiment on UACC-257 and with UO-31 were 29.4 µM (inactive) and 14.8 µM (inactive), respectively.
Turning to `COc1ccccc1C(=O)c1c(NCc2ccccc2)c(=O)c1=O`, the GI50 in the experiment with CCRF-CEM was 26.1 µM (inactive); with HCC 2998, > 100 µM (inactive); in the experiment with HCT-116, > 100 µM (inactive); in the experiment on HCT-15, 27.4 µM; in the experiment on HL-60, 21 µM (inactive); in the experiment with HOP-62, > 100 µM (inactive). Moreover, the GI50 with HT-29 is > 100 µM (inactive); in the experiment on IGROV-1, 9.55 µM (inactive); in the experiment with K562, 27.5 µM (inactive); in the experiment with KM12, > 100 µM (inactive); in the experiment with NCI-H226, > 100 µM (inactive); with NCI-H522, 11.5 µM (inactive). Also, the GI50 in the experiment on OVCAR-8 is > 100 µM (inactive); with RPMI-8226, 32.9 µM (inactive); with SF-539 it was 0.0841 µM (active); in the experiment on SK-MEL-28 it was 18.1 µM (inactive); in the experiment with SNB-19, > 100 µM (inactive); in the experiment on SNB-75, > 100 µM (inactive). The GI50 with UACC-257 and in the experiment with UO-31 was > 100 µM (inactive) in each case.
